In ChEMBL document CHEMBL1759957, “Synthesis and antibacterial evaluation of novel 8-fluoro Norfloxacin derivatives as potential probes for methicillin and vancomycin-resistant Staphylococcus aureus” (2011) one finds MIC data, which are given here for twelve molecules.

In brackets after ≈: the same amount, converted by molar mass.

Holding throughout (experiment): microbe, parasite or virus in culture
Format in all cases: functional

The test system of test [1] is Staphylococcus aureus. Particulars: ATCC 25923, 24 h.
Description: Antibacterial activity against methicillin- resistant Staphylococcus aureus ATCC 25923 after 24 hrs by spectrophotometry
The test system of test [2] is Klebsiella pneumoniae. The conditions noted are these: ATCC 27736, 24 h.
Description: Antibacterial activity against Klebsiella pneumoniae ATCC 27736 after 24 hrs by spectrophotometry
The subject of test [3] is Staphylococcus aureus. The conditions noted are these: ATCC 29213, 24 h.
Description: Antibacterial activity against methicillin- resistant and vancomycin resistant Staphylococcus aureus ATCC 29213 after 24 hrs by spectrophotometry

`CCCCNc1nc(C)cc(N2CCN(c3c(F)cc4c(=O)c(C(=O)O)cn(Cc5ccc(C(F)(F)F)cc5)c4c3F)CC2)n1`: the MIC in test [1] amounted to 6.25 µg/mL (≈ 9.91 µM); in test [2] it was 6.25 µg/mL (≈ 9.91 µM); in test [3] it was 1.56 µg/mL (≈ 2.47 µM).

Turning to `Cc1cc(N2CCN(c3c(F)cc4c(=O)c(C(=O)O)cn(Cc5ccc(C(F)(F)F)cc5)c4c3F)CC2)nc(NCCN2CCOCC2)n1`, the MIC in test [1] was determined as 0.78 µg/mL (≈ 1.13 µM); in test [2] it was 1.56 µg/mL (≈ 2.27 µM); in test [3], 1.56 µg/mL (≈ 2.27 µM).

Turning to `CCCCNc1nc(NCCCC)nc(N2CCN(c3c(F)cc4c(=O)c(C(=O)O)cn(CC)c4c3F)CC2)n1`, the MIC in test [1], in test [2] and in test [3] was 0.39 µg/mL (≈ 0.698 µM) throughout.

For the molecule `Cc1cc(N2CCN(c3c(F)cc4c(=O)c(C(=O)O)cn(Cc5ccc(C(F)(F)F)cc5)c4c3F)CC2)nc(NC(C)(C)C)n1`, the figures for the MIC in test [1], in test [2] and in test [3] were 1.56 µg/mL (≈ 2.47 µM), 0.19 µg/mL (≈ 0.301 µM) and 1.56 µg/mL (≈ 2.47 µM), respectively.

With `CCn1cc(C(=O)O)c(=O)c2cc(F)c(N3CCN(c4cc(C)nc(N5CCOCC5)n4)CC3)c(F)c21`, the MIC in test [1] was found to be 0.39 µg/mL (≈ 0.758 µM); in test [2], 0.045 µg/mL (≈ 0.0875 µM); in test [3] it was 0.045 µg/mL (≈ 0.0875 µM).

Turning to `CCn1cc(C(=O)O)c(=O)c2cc(F)c(N3CCOCC3)c(F)c21`, the MIC came out at 0.022 µg/mL (≈ 0.065 µM) in test [1], 0.022 µg/mL (≈ 0.065 µM) in test [2] and 0.045 µg/mL (≈ 0.133 µM) in test [3].

Regarding `CCn1cc(C(=O)O)c(=O)c2cc(F)c(N3CCN(c4cc(C)nc(NC(C)(C)C)n4)CC3)c(F)c21`, the MIC in test [1] came to 1.56 µg/mL (≈ 3.12 µM); in test [2] it was 0.78 µg/mL (≈ 1.56 µM); in test [3], 0.78 µg/mL (≈ 1.56 µM).

On to `CC(C)(C)Nc1nc(NC(C)(C)C)nc(N2CCN(c3c(F)cc4c(=O)c(C(=O)O)cn(Cc5ccc(C(F)(F)F)cc5)c4c3F)CC2)n1`, for which the MIC in test [1] is 3.12 µg/mL (≈ 4.53 µM); in test [2] it was 1.56 µg/mL (≈ 2.27 µM); in test [3], 6.25 µg/mL (≈ 9.08 µM).

Turning to `CCn1cc(C(=O)O)c(=O)c2cc(F)c(N3CCN(c4nc(N5CCN(C)CC5)nc(N5CCN(C)CC5)n4)CC3)cc21`, the MIC in test [1], in test [2] and in test [3] was 0.39 µg/mL (≈ 0.656 µM) throughout.

Turning to `CCCNc1nc(NCCC)nc(N2CCN(c3c(F)cc4c(=O)c(C(=O)O)cn(CC)c4c3F)CC2)n1`, the MIC in test [1] turned out to be 0.78 µg/mL (≈ 1.47 µM); in test [2], 0.19 µg/mL (≈ 0.358 µM); in test [3], 0.78 µg/mL (≈ 1.47 µM).

For `CCCNc1nc(NCCC)nc(N2CCN(c3c(F)cc4c(=O)c(C(=O)O)cn(Cc5ccc(C(F)(F)F)cc5)c4c3F)CC2)n1`, the MIC was determined as 1.56 µg/mL (≈ 2.36 µM) in test [1], 0.78 µg/mL (≈ 1.18 µM) in test [2] and 1.56 µg/mL (≈ 2.36 µM) in test [3].

As to `Cc1cc(N2CCN(c3c(F)cc4c(=O)c(C(=O)O)cn(Cc5ccc(C(F)(F)F)cc5)c4c3F)CC2)nc(N2CCCCC2)n1`, the MIC stood at 0.78 µg/mL (≈ 1.21 µM) in test [1], 0.39 µg/mL (≈ 0.607 µM) in test [2] and 0.39 µg/mL (≈ 0.607 µM) in test [3].
